The results in this text go back to article PMC5654471 (Bioorganic & medicinal chemistry letters, 2016).

The test system of one data set is female NSG mice. As to the kind of experiment: Safety and tolerability in NSG mice. It counts as in vivo.
Data set [1] deals with MOLM-14 cells. As to the kind of experiment: Double strand DNA breaks, γ-H2Ax immunofluorescence. It is filed as cell-based. The conditions noted are these: 24 hours exposure, 200 nM, 1.0 and 2.0 µM.
In another data set the test system is THP-1 cells. In words: ROS production. It is filed as cell-based. As to conditions: approximately 2 hours post-treatment.
Data set [2] has as its system MOLM-14 cells. In words: ROS production. It counts as cell-based. The conditions noted are these: approximately 2 hours post-treatment.

As to `O=C1C(C2=C(N3CC3)C(=O)c3ccccc3C2=O)=C(N2CC2)C(=O)c2ccccc21` [Compound 3, 3,3'-Di(aziridin-1-yl)-[2,2'-binaphthalene]-1,1',4,4'-tetraone], in the data set with female NSG mice (5, 10 and 15 mg/kg IP for 5 consecutive days, one week observation), the tolerability entry is listed as “tolerated the compound well”. Further, the “mean body weight loss” value in the data set with female NSG mice (mouse, in vivo, ip) is recorded as ≤ 10%. Besides, the “γ-H2Ax phosphorylation (double strand DNA breaks)” value with MOLM-14 cells [1] was “substantial γ-H2Ax phosphorylation”. Besides, the “ROS production (RFU)” value with THP-1 cells and in the data set with MOLM-14 cells [2] was “dose-dependent increase in ROS production” throughout.
